For experiment [1], the system named is residual ICa. It is filed as cell-based, mouse.
Experiment [2] has as its system R-type channels (Cav2.3). The format is cell-based, mouse.

“Also recorded” adds a separate entry of the source.

In the case of `[Cl][Cd][Cl]` [CdCl2], in experiment [1], the “block of residual ICa” value is on record as “residual ICa was blocked”.
Take “SNX-482: blocker of R-type channels (Cav2.3), from Peptide Institute (GVDKAGCRYMFGGCSVNDDCCPRLGCHSLFSYCAWDLTFSD; UniProt P56854 1-41, looked up)”: in experiment [2], the “effect on ICa of R-type blocker” value is given as “lack of effect; also recorded: without effect”.

Source of the values: publication PMC3853768 (Molecular Pain, 2013).
